According to the NIST ThermoML archive (doi:10.1021/je401095k):
± gives the expanded uncertainty stated by the source.

Tests used:
[1] = 293.2 K; 101.33 kPa; Liquid; Vibrating tube method
[2] = refractive index (Na D-line) (dimensionless); details: 293.2 K; 101.33 kPa; Liquid; Standard Abbe refractometry

Row | SMILES | mass density [1] | refractive index [2]
1 | CC(=O)OCCC(C)C [3-methylbutyl ethanoate] | 866.71 ± 0.24 kg/m3 | 1.3976 ± 0.0008
2 | O=CO [formic acid] | 1219.5 ± 0.42 kg/m3 | 1.371 ± 0.0008
3 | O [water] | – | 1.3324 ± 0.0008

Further lines, results first:

Row | mass density [1] | refractive index [2] | SMILES
4 | 887.92 ± 0.24 kg/m3 | 1.4051 ± 0.0008 | CC(=O)CCC(C)C [5-methyl-2-hexanone]
5 | 952.68 ± 0.23 kg/m3 | 1.3977 ± 0.0008 | CCCC(=O)O [butanoic acid]
